Experimental data reported in ChEMBL document CHEMBL5137049, “Discovery of a Novel Small-Molecule Inhibitor Disrupting TRBP-Dicer Interaction against Hepatocellular Carcinoma via the Modulation of microRNA Biogenesis” (J Med Chem, 2022).
The source made the active and inactive calls. No cut-off for these calls is given here.

Experiments:
[1] = target: T1, Programmed cell death protein 4 (Homo sapiens) (UniProt Q53EL6); assay: Inhibition of PDCD4 in human HeLa cells tranfected with pCI-neo-luciferase-PDCD4 3'-UTR plasmid assessed as fold change in luciferase signal by measuring relative luciferase unit by luciferase reporter assay; format: cell-based
T1 sequence (whole entry): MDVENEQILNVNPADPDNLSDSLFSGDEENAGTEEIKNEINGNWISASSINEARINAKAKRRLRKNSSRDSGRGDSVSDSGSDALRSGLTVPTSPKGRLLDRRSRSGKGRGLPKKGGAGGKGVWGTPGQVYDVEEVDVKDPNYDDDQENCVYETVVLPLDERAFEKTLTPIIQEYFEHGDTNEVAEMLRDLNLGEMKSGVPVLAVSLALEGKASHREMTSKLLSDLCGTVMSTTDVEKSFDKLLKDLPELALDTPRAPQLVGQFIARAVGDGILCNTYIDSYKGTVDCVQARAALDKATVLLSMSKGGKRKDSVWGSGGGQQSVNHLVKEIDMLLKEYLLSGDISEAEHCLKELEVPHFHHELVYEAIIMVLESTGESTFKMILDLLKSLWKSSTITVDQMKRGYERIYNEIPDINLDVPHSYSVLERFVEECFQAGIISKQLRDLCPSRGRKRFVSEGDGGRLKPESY

HeLa = assay: Inhibition of microRNA in human HeLa cells transfected with pCI-neo-luciferase-miR-21 plasmid assessed as change in luciferase signal by measuring relative luciferase unit by luciferase reporter assay; format: cell-based
[2] = Inhibition of microRNA in human HeLa cells transfected with pCI-neo-luciferase-miR-21 plasmid assessed as change in luciferase signal incubated for 24 hrs by luciferase reporter assay; format: cell-based
HCCLM3 = assay: Antiproliferative activity against human HCCLM3 cells assessed as inhibition of cell growth incubated for 72 hrs by CellTiter-luminescence assay; format: functional, cell-based
SK-HEP1 [3] = assay: Inhibition of cell migration in human SK-HEP1 cells at 10 to 25 uM measured after 24 hrs by crystal violet staining based transwell assay; format: functional; details: dose 10-25 µM
SK-HEP1 [4] = assay: Antiproliferative activity against human SK-HEP1 cells assessed as inhibition of cell growth incubated for 72 hrs by CellTiter-luminescence assay; format: functional, cell-based

Row | SMILES | RLU [1] | RLU (HeLa) | further results
1 | COC(=O)[C@@H](C(C)C)N(Cc1nc(-c2ccc(OC)cc2)oc1C)S(=O)(=O)c1ccc(C)cc1 | 1.04 | 1.06 | –
2 | Cc1oc(-c2ccc(OCc3ccccc3)cc2)nc1CCl | 2.01 | 4.77 | –
3 | CCOC(=O)c1nc(-c2ccc(OC)c(OC)c2)oc1C | 1.17 | 1.35 | –
4 | CCOC(=O)c1nc(-c2ccc(Br)cc2)oc1C | – | – | EC50 [2]: 5.98 µM
5 | COc1ccc(S(=O)(=O)N(Cc2nc(-c3ccc(OCc4ccccc4)cc3)oc2C)[C@@H](C(=O)O)C(C)C)cc1 | 1.65 | 2.47 | –
6 | COc1ccc(S(=O)(=O)N(Cc2nc(-c3ccc(Cl)cc3)oc2C)[C@@H](C(=O)O)C(C)C)cc1 | 0.97 | 1.06 | –
7 | COC(=O)[C@H](NS(=O)(=O)c1ccc(C)cc1)C(C)C | 1.03 | 1.04 | –
8 | COc1ccc(S(=O)(=O)N(Cc2nc(-c3ccc(OC)c(OC)c3)oc2C)[C@@H](C(=O)NO)C(C)C)cc1 | 0.86 | 1.02 | –
9 | COc1ccc(-c2nc(CN([C@@H](C(=O)O)C(C)C)S(=O)(=O)c3ccc(OC)cc3)c(C)o2)cc1 | 1 | 1.04 | –
10 | COC(=O)[C@@H](C(C)C)N(Cc1nc(-c2ccccc2)oc1C)S(=O)(=O)c1ccc(OC)cc1 | 1.09 | 0.96 | –
11 | CCOC(=O)c1nc(-c2ccc(C)cc2)oc1C | – | – | Activity (HCCLM3): Active; EC50 [2]: 2.99 µM; inhibition (SK-HEP1 [3]): Active; Activity (SK-HEP1 [4]): Active
12 | COc1ccc(-c2nc(CN([C@@H](C(=O)O)C(C)C)S(=O)(=O)c3ccc(C)cc3)c(C)o2)cc1 | 1.05 | 1.12 | –
13 | Cc1oc(-c2ccc(-c3ccccc3)cc2)nc1C(=O)OCCO | – | – | Activity (HCCLM3): Active; EC50 [2]: 7.44 µM; inhibition (SK-HEP1 [3]): Active; Activity (SK-HEP1 [4]): Active
14 | COc1ccc(-c2nc(CCl)c(C)o2)cc1OC | 1.06 | 1.3 | –
15 | Cc1ccc(S(=O)(=O)N(Cc2nc(-c3ccc(Cl)cc3)oc2C)[C@@H](C(=O)O)C(C)C)cc1 | 1.03 | 1.14 | –
16 | COc1ccc(S(=O)(=O)N(Cc2nc(-c3ccc([N+](=O)[O-])cc3)oc2C)[C@@H](C(=O)O)C(C)C)cc1 | 1.02 | 1.17 | –
17 | Cc1oc(-c2ccccc2)nc1CCl | 1.03 | 1.13 | –
18 | COc1ccc(S(=O)(=O)N(Cc2nc(-c3cc(OC)c(OC)c(OC)c3)oc2C)[C@@H](C(=O)O)C(C)C)cc1 | 1.02 | 1.08 | –
19 | COC(=O)[C@H](NS(=O)(=O)c1ccc(OC)cc1)C(C)C | 1.06 | 1.02 | –
20 | COc1ccc(S(=O)(=O)N(Cc2nc(-c3cc(OC)c(OC)c(OC)c3)oc2C)[C@@H](C(=O)NO)C(C)C)cc1 | 0.94 | 1.06 | –
21 | COc1ccc(-c2nc(CCl)c(C)o2)cc1 | 1.05 | 1.12 | –

Row | SMILES | RLU [1] | RLU (HeLa) | further results
22 | Cc1oc(-c2ccc([N+](=O)[O-])cc2)nc1CCl | 1.11 | 1.2 | –
23 | Cc1oc(-c2ccc(Cl)cc2)nc1CCl | 1.11 | 1.22 | –
24 | COc1ccc(S(=O)(=O)N(Cc2nc(-c3ccccc3)oc2C)[C@@H](C(=O)NO)C(C)C)cc1 | 0.98 | 1.02 | –
25 | COc1cc(-c2nc(CCl)c(C)o2)cc(OC)c1OC | 2.01 | 1.09 | –
26 | COC(=O)[C@@H](C(C)C)N(Cc1nc(-c2ccc(OC)c(OC)c2)oc1C)S(=O)(=O)c1ccc(C)cc1 | 0.95 | 1.08 | –
27 | COc1ccc(-c2nc(CN([C@@H](C(=O)NO)C(C)C)S(=O)(=O)c3ccc(OC)cc3)c(C)o2)cc1 | 1.02 | 1.01 | –
28 | COc1ccc(S(=O)(=O)N(Cc2nc(-c3ccccc3)oc2C)[C@@H](C(=O)O)C(C)C)cc1 | 1.01 | 1.05 | –
29 | COC(=O)[C@@H](C(C)C)N(Cc1nc(-c2ccc(Cl)cc2)oc1C)S(=O)(=O)c1ccc(C)cc1 | 1.08 | 1.03 | –
30 | CCOC(=O)c1nc(-c2ccccc2)oc1C | 1.07 | 1.14 | –
31 | COC(=O)[C@@H](C(C)C)N(Cc1nc(-c2ccc(OCc3ccccc3)cc2)oc1C)S(=O)(=O)c1ccc(OC)cc1 | 1.32 | 1.58 | –
32 | COC(=O)[C@@H](C(C)C)N(Cc1nc(-c2ccc(OC)c(OC)c2)oc1C)S(=O)(=O)c1ccc(OC)cc1 | 0.95 | 1.06 | –
33 | CCOC(=O)c1nc(-c2cc(OC)c(OC)c(OC)c2)oc1C | 1.09 | 1.13 | –
34 | COC(=O)[C@@H](C(C)C)N(Cc1nc(-c2ccc(OC)cc2)oc1C)S(=O)(=O)c1ccc(OC)cc1 | 1.03 | 0.99 | –
35 | COC(=O)[C@@H](C(C)C)N(Cc1nc(-c2ccc([N+](=O)[O-])cc2)oc1C)S(=O)(=O)c1ccc(OC)cc1 | 0.96 | 0.98 | –
36 | COc1ccc(S(=O)(=O)N(Cc2nc(-c3ccc(OC)c(OC)c3)oc2C)[C@@H](C(=O)O)C(C)C)cc1 | 0.86 | 1.02 | –
37 | COc1ccc(-c2nc(CN([C@@H](C(=O)O)C(C)C)S(=O)(=O)c3ccc(C)cc3)c(C)o2)cc1OC | 0.97 | 0.98 | –
38 | CCOC(=O)c1nc(-c2ccc(-c3ccccc3)cc2)oc1C | – | – | Activity (HCCLM3): Active; EC50 [2]: 1.85 µM; inhibition (SK-HEP1 [3]): Active; Activity (SK-HEP1 [4]): Active
39 | COC(=O)[C@@H](C(C)C)N(Cc1nc(-c2ccc(Cl)cc2)oc1C)S(=O)(=O)c1ccc(OC)cc1 | 0.93 | 1.12 | –
40 | CCOC(=O)c1nc(-c2ccc(Cl)cc2)oc1C | – | – | EC50 [2]: 7.34 µM
41 | COC(=O)[C@@H](C(C)C)N(Cc1nc(-c2cc(OC)c(OC)c(OC)c2)oc1C)S(=O)(=O)c1ccc(OC)cc1 | 1.03 | 1.08 | –
